Earlier results, collected in patent US20150190345A1, “Controlled Release Formulations of Lorazepam” (priority 2014, published 2015).

Tests used:
[1] = according to the package insert

**Q.** With `O=C1Nc2ccc(Cl)cc2C(c2ccccc2Cl)=NC1O` (centres unmarked) [Lorazepam, 7-chloro-5-(2-chlorophenyl)-1,3-dihydro-3-hydroxy-2H-1,4-benzodiazepin-2-one] as the molecule, how does the “half-life in human plasma” value [1] read?
**A.** The value was “about 12 hours”.

**Q.** And the solubility in water?
**A.** The solubility in water was “almost insoluble in water”.
